Where “and” joins values, the source holds several entries; their conditions need not be identical. Equal values may be shown once.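 Briefly, cells in 96-well plates were exposed to five compound concentrations for 48 h, and endpoints were estimated by linear interpolation. TGI: total growth inhibition.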
What was measured:
Test in all cases: inhibition of tumour cell growth, NCI panel, 48 h
[1] = test system: 786-0 renal
[2] = test system: DU-145 prostate
[3] = test system: HL-60(TB) leukemia
[4] = test system: HOP-62 NSCLC
[5] = test system: MCF7 breast
[6] = test system: MOLT-4 leukemia
[7] = test system: OVCAR-5 ovarian
[8] = test system: SF-539 CNS
[9] = test system: U251 CNS
[10] = test system: SNB-75 CNS
[11] = test system: OVCAR-3 ovarian

Structure (SMILES) | TGI [1] | TGI [2] [µM] | TGI [3] [µM] | TGI [4] | TGI [5] [µM] | TGI [6] [µM] | TGI [7] | TGI [8] | TGI [9] [µM] | TGI [10] [µM] | TGI [11] [µM]
O=P1(c2ccccc2)C2=CCC=CC2C(c2ccccc2)N1Cc1ccccc1 (stereo not drawn) | 29.4 µM | 31.4 | 39.9 | 37.6 µM | 25.6 | 38.7 | > 100 µM | 31.5 µM | 30.7 |  | 
CN1B(c2ccccc2)N(C)C(=O)N(C)C1=O | > 100 µM | > 100 | > 100 |  | > 100 |  | > 100 µM | > 100 µM | > 100 | > 100 | 
Cc1cc(C)c(N=Nc2c(O)c(S(=O)(=O)O)cc3cc(S(=O)(=O)O)ccc23)cc1C | > 100 µM | > 100 |  | > 100 µM |  | > 100 | > 100 µM |  | > 100 | > 100 | > 100
O=S(=O)(/N=C(\NO)Nc1ccc(Cl)cc1)c1ccc(-c2ccccn2)s1 |  | > 100 | > 100 | > 100 µM |  | > 100 | > 100 µM | > 100 µM | > 100 | > 100 | 40.2
CC(C)N(C(C)C)P(OCCC#N)OC1CC(n2cnc3c(=O)[nH]cnc32)OC1COC(=O)NCCCCCCNC(=O)OC(C)(C)c1ccc(-c2ccccc2)cc1 (stereo not drawn) | 54.7 µM |  | 36.4 | 44.2 µM |  | > 100 | > 100 µM | 44.3 µM | 43 | 53.7 | 
CN(C)CCNc1nc2c(no[n+]2[O-])c2ccccc12 | 99 µM | > 100 |  | 34.9 µM | > 100 | 95.8 | > 100 µM | 27.6 µM | 83.8 | 52.4 | 71.7
CCN(CC)CCNc1ccc2ncn3c4cc(=O)ccc4c(O)c1c23 | 14.9 µM |  | 11.9 | 17.9 µM |  | 6.15 | 32.5 µM | 15.1 µM | 6.59 | 21.6 | 6.36
C#CCOC(=O)C(N)CCSC (stereo not drawn) | > 100 µM | > 100 | > 100 | > 100 µM | > 100 | > 100 | > 100 µM |  | > 100 | > 100 | > 100
CC1(C)c2ccccc2C(O)C12CCC(=O)CC2 (stereo not drawn) | > 100 µM | > 100 | > 100 | > 100 µM |  |  | > 100 µM | > 100 µM | > 100 |  | > 100
OC1c2ccccc2C(O)C2OC12 (stereo not drawn) | > 100 µM | > 100 | > 100 | > 100 µM | > 100 | > 100 | > 100 µM | > 100 µM | > 100 |  | > 100
c1ccc(CCn2cncn2)cc1 |  |  | > 100 | > 100 µM |  | > 100 | > 100 µM | > 100 µM | > 100 | > 100 | > 100
CCN(CC)CCC(=O)c1ccc(Oc2ccc(F)cc2)cc1 | 28 µM | 53.1 |  | 56.6 µM | 38.7 | 51.3 | 35 µM | 31.8 µM | 31.1 | 47.8 | 34.5
O=C1c2cc([N+](=O)[O-])sc2C(=O)c2ccsc21 | 0.948 µM | 0.674 |  | 0.486 µM | 0.69 | 0.456 | 3.22 µM | 0.938 µM | 0.373 | 2.71 | 0.209
COc1ccc2c(c1)-c1[nH]c3ccccc3c1CC2 | 32.2 µM | 33.5 |  | 30.8 µM | 29.7 | 36.2 | 29 µM | 31.2 µM | 30.8 | 28.9 | 33.2
CC(=O)O[C@H]1CC[C@H]2[C@@H]3CCC(C(C)=O)[C@H](C(=O)O)[C@H]3CC[C@]12C (stereo partly drawn) |  |  | > 100 | > 100 µM | > 100 | > 100 | > 100 µM | > 100 µM | > 100 |  | > 100
O=C1NC2(C=Cc3c(ccc4ccccc34)O2)Oc2ccccc21 (stereo not drawn) | > 100 µM |  | 27.4 | > 100 µM |  | 30.5 | > 100 µM | 50.2 µM | 62.5 | 61.4 | 59.8
CN(C)CCn1nc(N)c2nc3cc(C(F)(F)F)ccc3nc21 | > 100 µM | > 100 | > 100 | > 100 µM | > 100 | > 100 | > 100 µM |  | > 100 | 72 | 
COC(=O)C1C2CC3C(OC(=O)C31)C2OC(=O)[C@](OC)(c1ccccc1)C(F)(F)F (stereo partly drawn) | > 100 µM |  | > 100 | > 100 µM |  | > 100 | > 100 µM | > 100 µM | > 100 | > 100 | > 100
Cc1ccc2c(=O)c(-c3n[nH]c(=S)s3)c[nH]c2n1 | > 100 µM | > 100 | > 100 | > 100 µM | > 100 | > 100 | > 100 µM |  | > 100 |  | > 100
O=C1N[C@@H](COc2ccc(C=Nc3ccc(CCc4ccc(N=Cc5ccc(OC[C@@H]6COC(=O)N6)cc5)cc4)cc3)cc2)CO1 | > 100 µM | > 100 | > 100 | > 100 µM |  | > 100 | > 100 µM |  | > 100 |  | > 100
CC(=O)n1ccc2c(Cl)ncnc21 | > 100 µM |  | > 100 | > 100 µM |  | > 100 |  | > 100 µM | > 100 | > 100 | > 100
COC[C@@H](Cc1ccc(OC)c(OC)c1)[C@@H](COC)Cc1ccc(OC)c(OC)c1 |  |  | > 100 |  |  | > 100 | > 100 µM | > 100 µM | > 100 | > 100 | > 100
CCC1(O)CC(OC2CC(N(C)C)C(OC3CC(O)C(OC4CCC(=O)C(C)O4)C(C)O3)C(C)O2)c2c(O)c3c(c(O)c2C1C(=O)OC)C(=O)c1cccc(O)c1C3=O (stereo not drawn) | 0.218 µM and 0.449 µM | 0.124 | 0.0496 | 0.138 µM and 0.119 µM | 1.02 |  | 0.0735 µM and 0.722 µM | 0.127 µM and 0.0653 µM | 1.42 |  | 10.3

From PubChem BioAssay (NCI)
